Data set [1] has as its target T1, α6β3γ2 GABAA/BzR (Homo sapiens, UniProt P18507+Q16445). The experiment in a line: Competition binding to HEK cell membranes, α6β3γ2. The arrangement: expressed in transfected cells.
In a further data set the target is T2, α4β3γ2 GABAA/BzR (Homo sapiens, UniProt P18507+P48169).
T2 construct: expressed in transfected cells; host or cells: LTK cells (given for XLi-093 only)
Conditions: Figure 33; αxβ3γ2; read-out: Affinity Ki α4; cited from earlier work.

The next data set has as its system baboons. Conditions: cited from earlier work.
Data set [2] concerns alcohol preferring and HAD rats. Conditions: cited from earlier work.
Data set [3] has as its target T1, α6β3γ2 GABAA/BzR. Also noted: expressed in transfected cells; host or cells: LTK cells (given for XLi-093 only). Conditions: cited from earlier work.
Data set [4] relates to Bz BS of GABA(A) receptors. Conditions: cited from earlier work.
In another data set the target is T3, α5β3γ2 GABAA receptor (Homo sapiens, UniProt P18507+P31644).
T3 construct: expressed in transfected cells; host or cells: Xenopus oocytes
Conditions: cited from earlier work; for Efficacy α5 as % of control current: baseline 100.

Data set [5] has as its system guinea pig airway smooth muscle. Conditions: 1 μM substance P; p < 0.01; cited from earlier work.
The test system of another data set is MAM rats. Conditions: cited from earlier work.
In a further data set the test system is α2β3γ2 GABAA receptor. Conditions: cited from earlier work; for Efficacy α2 as % of control current: baseline 100.
In a further data set the test system is primates. Conditions: cited from earlier work.
Data set [6] concerns human airway smooth muscle. Conditions: 50 μM; p < 0.01; cited from earlier work.
The next data set deals with α1β3γ2 GABAA receptor. Conditions: cited from earlier work; for Efficacy α1 as % of control current: baseline 100.
In data set [7] the test system is human airway smooth muscle cells. Conditions: 10 μM; bradykinin 1 μM; cited from earlier work.
A further data set has as its system ventral HPC neurons. Conditions: 0.1 mg/kg, i.v.; MAM- and saline-treated animals; cited from earlier work.
The subject of data set [8] is human airway smooth muscle cells. Conditions: whole cell patch clamp; cited from earlier work.
For the next data set, the target named is T4, α6β2γ2 GABAA receptor (Homo sapiens, UniProt P18507+Q16445).
T4 construct: expressed in transfected cells; host or cells: HEK cells
The data set can be described thus: Radioligand binding (McKernan and Atack), α6β2γ2. Conditions: Table 3; αxβ2γ2; means of two determinations; read-out: Binding affinity α6. The procedure:
(§1) Transfected HEK cells (beta2 gamma2 and desired alpha subtype) were harvested into phosphate-buffered saline, centrifuged at 3,000 g, and stored at −70°C until required. On the day of the assay, pellets were thawed and resuspended in sufficient volume of 50 mM Tris/acetate (pH 7.4 at 4°C) to give a total binding of approximately 1500–2000 dpm. […] Total assay volume was 0.5 mL and assays were carried out in 96-well plates and incubation time started by the addition of 0.1 mL of resuspended cell membranes. Following incubation for 1 hour at 4°C, assays were terminated by filtration through GF/B filters, washed with 10 mL ice cold buffer, dried, and then counted using a liquid scintillation counter. […] We have previously reported the synthesis of the following.

A further data set has as its target T5, α4β2γ2 GABAA receptor (Homo sapiens, UniProt P18507+P48169).
T5 construct: expressed in transfected cells; host or cells: HEK cells
The experiment in a line: Radioligand binding (McKernan and Atack), α4β2γ2. Conditions: Table 3; αxβ2γ2; means of two determinations; read-out: Binding affinity α4. The procedure: as §1

The subject of a further data set is rodents. Conditions: one study in rodents; cited from earlier work.
The test system of the next data set is α3β3γ2 GABAA receptor. Conditions: cited from earlier work; for Efficacy α3 as % of control current: baseline 100.
Data set [9] deals with dopamine neurons in the VTA. Conditions: cited from earlier work.
In data set [10] the target is T6, α1β3γ2 GABAA/BzR (Homo sapiens, UniProt P14867+P18507). The arrangement: expressed in transfected cells; host or cells: LTK cells (given for XLi-093 only). Conditions: Figure 4, read-out: Ki α1, cited from earlier work.
Another data set concerns rhesus monkeys. Conditions: cited from earlier work.
Data set [11] deals with T7, α3β3γ2 GABAA/BzR (Homo sapiens, UniProt P18507+P34903). The experiment in a line: Competition binding to HEK cell membranes, α3β3γ2. The arrangement: expressed in transfected cells. Conditions: Table 2; data from three separate laboratories; read-out: Affinity Ki α3.
Another data set deals with rats. Conditions: cited from earlier work.
A further data set concerns mice. Conditions: mice; ref Harris, DeLorey et al.; cited from earlier work.
A further data set relates to AD rat model. The data set can be described thus: Spatial water maze task in AD rat model. Conditions: relative to vehicle, p < 0.05. In kind it is in vivo. The source says: It is well known many Down syndrome patients develop Alzheimer's disease or a dementia with a very similar etiology.
The target of the next data set is α5β3γ2 GABAA/BzR (Homo sapiens, UniProt P18507+P31644). The experiment in a line: Competition binding to HEK cell membranes, α5β3γ2. Also noted: expressed in transfected cells. Conditions: Affinity Ki α5.
For data set [12], the target named is T6, α1β3γ2 GABAA/BzR. The experiment in a line: Competition binding to HEK cell membranes, α1β3γ2. The arrangement: expressed in transfected cells. Conditions: Table 2; data from three separate laboratories; read-out: Affinity Ki α1.
Data set [13] deals with T7, α3β3γ2 GABAA/BzR. Also noted: expressed in transfected cells; host or cells: LTK cells (given for XLi-093 only). Conditions: Figure 4, read-out: Ki α3, cited from earlier work.
For data set [14], the target named is T8, α2β3γ2 GABAA/BzR (Homo sapiens, UniProt P18507+P47869). Also noted: expressed in transfected cells; host or cells: LTK cells (given for XLi-093 only). Conditions: Figure 4, read-out: Ki α2, cited from earlier work.
The target in data set [15] is T8, α2β3γ2 GABAA/BzR. The data set can be described thus: Competition binding to HEK cell membranes, α2β3γ2. The arrangement: expressed in transfected cells. Conditions: Table 2; data from three separate laboratories; read-out: Affinity Ki α2.

This is an account of results in publication PMC4657098, “A Review of the Updated Pharmacophore for the Alpha 5 GABA(A) Benzodiazepine Receptor Model” (International Journal of Medicinal Chemistry, 2015).

The structures appear in SMILES notation. Several values for one entry are separate records, joined by “and”; a condition that tells them apart may be missing. Identical values can stand only once. Like-named read-outs stand apart in the source and are kept apart here.

Turning to `CCCOc1cc2c(cn1)[nH]c1ccccc12.Cl` [3 PBC, 3-propoxy-β-carboline hydrochloride], the Ki is 1000 nM on α6β3γ2 GABAA/BzR [1] (Ki α6); 1000 nM on α4β3γ2 GABAA/BzR; more than 1000 nM on α6β3γ2 GABAA/BzR [3] (Figure 33, αxβ3γ2, read-out: Affinity Ki α6). For the same compound, the activity in baboons result with baboons is on record as “active”. Further, the “rate at which rats self-administrated alcohol” value in data set [2] (alcohol preferring and HAD rats) is “reduce the rate”. Moreover, in data set [2], the sucrose self-administration result is listed as “little or no effect”. Also, the modulation result in [4] (Supplement Table 1) is listed as “antagonist”. The “pharmacological properties compared with classical benzodiazepine receptor antagonists” value in [4] is on record as “near GABA neutral antagonists”.
Take `C#Cc1ccc2c(c1)C(c1ccccc1F)=N[C@H](C)c1c(C(=O)OCC)ncn1-2` [SH-053-2′F-R-CH3, (2)]: the “Efficacy α5 as % of control current” value at α5β3γ2 GABAA receptor (100 nM) is given as 183 % of control current; at α5β3γ2 GABAA receptor (1 μM), 387 % of control current. Besides, the “remaining contractile force 30 minutes after a substance P-induced contraction” value in data set [5] is given as “significantly reduced”. For the same compound, in the data set on MAM rats (10 mg/kg, i.p.), the “locomotor response to D-amphetamine (0.5 mg/kg i.p.), MAM rats” value is on record as “reduced”. Further, the “locomotor response to D-amphetamine in repeatedly haloperidol-treated SAL animals” value in the data set on MAM rats (rat, in vivo) is reported as “reduced”. The “peak locomotor response in repeatedly haloperidol-treated MAM rats” value with MAM rats (rat, in vivo) is given as “no effect”. Further, the “Efficacy α2 as % of control current” value with α2β3γ2 GABAA receptor (100 nM) was 124 % of control current; in the data set with α2β3γ2 GABAA receptor (1 μM) it was 185 % of control current. In the data set on primates, the anxiolytic effect entry was “very weak anxiolytic effect”. Further, the “isoproterenol (10 nM) mediated relaxation of an acetylcholine EC50 contraction” value in data set [6] is listed as “significantly enhances”. For the same compound, the “Efficacy α1 as % of control current” value was 111 % of control current with α1β3γ2 GABAA receptor (100 nM) and 154 % of control current in the data set on α1β3γ2 GABAA receptor (1 μM). In data set [7], the “bradykinin-induced increase in intracellular calcium” value is recorded as “attenuated”. Besides, in the data set on ventral HPC neurons, the “evoked excitatory response of ventral HPC neurons” value is reported as “decreases”. Further, in data set [8], the “plasma membrane chloride current” value is “induced a Cl^− current”. Besides, the Ki on α6β2γ2 GABAA receptor and at α4β2γ2 GABAA receptor was more than 5000 nM throughout. In the data set with rodents, the locomotion entry was “decrease in locomotion”. In addition, the “Efficacy α3 as % of control current” value with α3β3γ2 GABAA receptor (100 nM) is listed as 125 % of control current; in the data set with α3β3γ2 GABAA receptor (1 μM), 220 % of control current. The “dopamine neuron activity in control animals” value in [9] (0.1 mg/kg, i.v.) is reported as “no effect”. In data set [9] (0.1 mg/kg, i.v.), the “firing rate and burst activity in MAM animals” value is “no effect”. The “number of spontaneously firing dopamine neurons (cells/track), MAM animals” value was “normalizes the aberrant increase” in data set [9] (0.1 mg/kg, i.v.) and “normalizes the aberrant increase” in data set [9] (hippocampal infusion 1 μM/side). Moreover, in [9], the “dopamine activity and locomotor response in MAM rats withdrawn from HAL” value was “unresponsive”. For the same compound, the “percentage of spikes occurring in bursts, MAM and control animals” value in [9] (hippocampal infusion 1 μM/side) is listed as “significantly reduced”. Also, in data set [9] (rat, in vivo), the “cells/track in repeatedly haloperidol-treated SAL rats” value is recorded as “reversed the haloperidol-induced reduction”. In addition, the “firing rate of dopamine neurons in repeatedly haloperidol-treated SAL rats” value in data set [9] (rat, in vivo) is given as “increase”. For the same compound, in data set [9] (rat, in vivo), the “percentage of spikes occurring in bursts, haloperidol-treated SAL and MAM rats” value is reported as “no impact”.
For the compound `COCc1ncn2c1CN(C)C(=O)c1cc(Cl)ccc1-2` [PWZ-029 (1)], on α5β3γ2 GABAA receptor, the “efficacy type at the α5-subunit” value was “negative allosteric modulator”. In addition, the “modulation at the α5-subunit” value at α5β3γ2 GABAA receptor is “moderate negative modulation”. In addition, the Ki on α1β3γ2 GABAA/BzR [10] (listed as 1a) is more than 300 nM; on α1β3γ2 GABAA/BzR [10] (listed as 1c), 362 nM; on α3β3γ2 GABAA/BzR [11], > 300 nM and 328 nM; on α6β3γ2 GABAA/BzR [1] (Affinity Ki α6), more than 300 nM; at α5β3γ2 GABAA/BzR it was 38.8 nM and 30 nM and 6 nM; at α1β3γ2 GABAA/BzR [12], > 300 nM and 920 nM and 362 nM. The Ki at α3β3γ2 GABAA/BzR [13] (listed as 1a) is more than 300 nM; on α3β3γ2 GABAA/BzR [13] (listed as 1c), 328 nM; on α2β3γ2 GABAA/BzR [14] (listed as 1a), more than 300 nM; at α2β3γ2 GABAA/BzR [14] (listed as 1c) it was 180 nM; at α2β3γ2 GABAA/BzR [15] it was > 300 nM and 180 nM; at α6β3γ2 GABAA/BzR [3] (read-out: Ki α6), more than 300 nM. The “ORD “difficult” trials” value in the data set with rhesus monkeys (i.v.) was “increasing dose-dependent curve for successful trials”. The “ORD “mixed” trials versus vehicle” value in the data set on rhesus monkeys (i.v.) is listed as “no significant results”. Besides, in the data set with rhesus monkeys (scopolamine 0.01 mg/kg), the “ORD, cholinergic deficits induced by scopolamine” value is given as “dose-dependently reverse the cholinergic deficits”. Further, the “recognition memory deficit induced by 0.3 mg/kg scopolamine, 1 h delay” value with rats (2 mg/kg) was “successfully reversed the deficit in recognition memory”. For the same compound, the “object recognition, 24 h delay” value in the data set with rats (2, 5 and 10 mg/kg) was “improved object recognition”. Moreover, the “modulation at the α2-subunit” value in the data set on α2β3γ2 GABAA receptor (0.1 μM) is “little or no effect”. In addition, the “efficacy type at the α2 subunit” value with α2β3γ2 GABAA receptor (oocytes, Sieghart et al.) is “very weak agonist activity”. Further, the scopolamine-induced memory impairment result with mice is reported as “potently reversed”. Besides, in the data set on α1β3γ2 GABAA receptor (0.1 μM), the “modulation at the α1-subunit” value was “little or no effect”. For the same compound, the “efficacy type at the α1 subunit” value in the data set on α1β3γ2 GABAA receptor (oocytes, Sieghart et al.) is “very weak agonist activity”. In addition, the “latency to reach the hidden platform (memory probe trials)” value with AD rat model is on record as “significant decrease in the latency to reach the hidden platform”. For the same compound, the “modulation at the α3-subunit” value in the data set with α3β3γ2 GABAA receptor (0.1 μM) is recorded as “little or no effect”. Moreover, in the data set with α3β3γ2 GABAA receptor (oocytes, Sieghart et al.), the “efficacy type at the α3 subunit” value is “very weak agonist activity”.
